Data taken from patent publication US20120190703A1, “SALTS OF 13A-(S)DESOXYTYLOPHORININE, PREPARATION METHODS AND PHARMACEUTICAL COMPOSITIONS AND USES THEREOF” (priority 2009, published 2012).
Values joined by “and” are separate entries in the source; they are usually repeats but may differ in a detail not shown here. Equal values may be shown once. Read-outs that look alike come from different tables or passages of the source. Marks after values point to notes of the source that are not given here.

Legend:
[1] = test system: H22 tumor-bearing mice; conditions: intragastric once daily
From the text: To determine the pharmacodynamic characters of 13a-(S)-deoxytylophorinine and its salts, the impact of these compounds to the tumor growth in H22 tumor-bearing mice was surveyed.
Male Kunming mice were obtained from the Laboratory Animal Center, Academy of Military Medical Science. Body weight 18˜22 g. 6 animals per group, totally 10 groups, 60 animals.
(+)-13a-(S)-deoxytylophorinine, (+)-13a-(S)-deoxytylophorinine Tartrate, (+)-13a-(S)-deoxytylophorinine Maleate, (+)-13a-(S)-deoxytylophorinine Citrate, Cytoxane (CTX) as positive control.
(+)-13a-(S)-deoxytylophorinine was administered at high dose (5 mg/kg) and low dose (2.5 mg/kg). Three (+)-13a-(S)-deoxytylophorinine salts were administered at high dose and low dose as equal moles with their prototype (Tartrate: 7.05 mg/kg, 3.53 mg/kg; Malate: 6.60 mg/kg, 3.30 mg/kg; Citrate: 7.90 mg/kg, 3.95 mg/kg).
Animals were reared in SPF grade circumstance to be observed for 24 h. The tumor cells liquid which resuscitated in abdominal cavity of KM mice was diluted with aseptic normal saline at 1:3 ratio. The resulting liquid was inoculated subcutaneously at forelimb with 0.2 mL every animal. After the injection over, the animals were divided to […] with 6 animals per group.
Four experimental samples were intragastric administered once daily 24 h after inoculation. The positive control CTX was intraperitoneal injected once daily. The animal body weight was recorded every day.

[2] = Drug distribution in brain tissue after oral administration in mice; format: in vivo, ICR mice; conditions: for Brain contents of (+)-13a-(S)-deoxytylophorinine (ng/ml), Mean ± SD / Brain contents of (+)-13a-(S)-deoxytylophorinine (ng/ml), individual animals 1-3: 6 mg/kg oral
Protocol: (§1) Male ICR mice. Body weight 18˜22 g.
Plasma was isolated by centrifugalization. […] 25% tissue homogenate was prepared with normal saline addition.
The drug concentration-time data in brain tissue after administered orally of (+)-13a-(S)-deoxytylophorinine tartrate, maleate and citrate were represented in Table 8˜10 and FIG. 6˜8. […] (+)-13a-(S)-deoxytylophorinine could be detected in 5 min. The peak concentration was reached after 15 min, and the compound still can be detected after 2 h after administration.

[3] = Plasma pharmacokinetics after oral administration in mice; conditions: for t½z / AUC(0-inf) / AUC(0-t) / Cmax / MRT inf / MRT last / Tmax: plasma; for t½z: non-compartment model; for AUC(0-inf) / AUC(0-t) / Cmax / MRT inf / MRT last / Tmax: male, ICR, mouse, po, 6 mg/kg
Protocol: To determine the pharmacokinetic characters of 13a-(S)-deoxytylophorinine and its salts, the studies about plasma pharmacokinetics and the character of distribution in brain were pursued.
as §1
(+)-13a-(S)-deoxytylophorinine Tartrate, (+)-13a-(S)-deoxytylophorinine Maleate, (+)-13a-(S)-deoxytylophorinine Citrate. All were dissolved in distilled water as 0.6 mg/ml solution before experiment progressed.
72 mice were divided to 3 groups with 24 animals per group, fasting for 16 h and drinking water freely. […] Plasma was isolated by centrifugalization. After the salts were administered orally, the brain tissues of mice were collected at 5 min, 15 min, 2 h time points. 25% tissue homogenate was prepared with normal saline addition. 200 μL of homogenate and plasma were added isovolumic MeCN to precipitate protein. 5 μL of clear supernatant was analyzed by LC/MS/MS.
(+)-13a-(S)-deoxytylophorinine was dissolved in DMSO and then diluted with MeOH with concentration 10, 50, 100, 500, 1000 and 2500 ng/ml respectively. 10 μl of standard solutions of (+)-13a-(S)-deoxytylophorinine with different concentration above were added to 200 μl of blank plasma sequently to adjust the concentration to 0.5, 2.5, 5, 25, 50, 125 ng/ml respectively. MeCN was added to the solution to precipitate protein, and 5 μl of result clear supernatant was analyzed with LC/MS/MS. Linear regression was ran with the peak area of (+)-13a-(S)-deoxytylophorinine as ordinate and the concentrations as abscissa.

[4] = Solubility in water; format: physicochemical; conditions: for solubility: water
[5] = test system: mice Lewis lung cancer; conditions: background art; cited from earlier work
[6] = test system: mice H22 liver cancer; conditions: background art; cited from earlier work
[7] = preliminary toxic experiments, background art; cited from earlier work
[8] = test system: Bel7402 human liver cancer cell; assay: Cytotoxic activity assay (MTT), Bel7402; format: cell-based; conditions: Bel-7402, 120 h, 5 days
Protocol: (§2) To evaluate the in vitro antitumor activity of (+)-13a-(S)-Deoxytylophorinine salts in this invention, Cytotoxic activity assay (MTT) experiment was persued.
(§3) 1. Tumor cells at log phase were incubated on 96-well plates at a density of 1˜1.0×10^4 cells/ml, 100 μl/well. Cells were cultured for 24 h at 37° C. in a cell incubator with 5% CO2.
(§4) 2. The treatment cells were exposed to the tested agents at different concentrations and cultured for 5 days in a cell incubator with full humidity incubator.
(§5) 3. The incubation medium was removed, then 100 μl 0.04% MTT was added to each well and Cells were cultured for 4 hours under the same conditions.
(§6) 4. The incubation medium was removed, then 150 μl DMSO was added to each well, the absorbance at a reference wavelength of 450 nm and a test wavelength of 570 nm was read. Drug inhibitory rate was calculated.

[9] = test system: Hct8 human colon cancer cell; assay: Cytotoxic activity assay (MTT), Hct8; format: cell-based; conditions: HCT-8, 120 h, 5 days
Protocol: as §2, §3, §4, §5, §6

[10] = high dose × 7 d, equal moles: prototype 5.0, tartrate 7.05, maleate 6.60, citrate 7.90 mg/kg
[11] = low dose × 7 d, equal moles: prototype 2.5, tartrate 3.53, maleate 3.30, citrate 3.95 mg/kg
[12] = 6 mg/kg oral, mice, Time (min) 0.08
[13] = 6 mg/kg oral, mice, Time (min) 0.25
[14] = 6 mg/kg oral, mice, Time (min) 0.5
[15] = 6 mg/kg oral, mice, Time (min) 1
[16] = 6 mg/kg oral, mice, Time (min) 2
[17] = 6 mg/kg oral, mice, Time (min) 3
[18] = 6 mg/kg oral, mice, Time (min) 4
[19] = 6 mg/kg oral, mice, Time (min) 6

## COc1ccc2c3c(c4cc(OC)c(OC)cc4c2c1)CN1CCC[C@H]1C3.O=C(O)/C=C\C(=O)O [Maleate, (+)-13a-(S)-deoxytylophorinine Maleate]
[1]; [10]
  Animal No. (Initial/Final): 6/4
  Body Weight(g) Final: 13.62 ± 2.08 g
  Body Weight(g) Initial: 21.17 ± 0.98 g⁻¹
  Inhibition (%): 73.58** %
  Tumor Weight (g, mean ± SD): 0.30 ± 0.24 g
[1]; [11]
  Animal No. (Initial/Final): 6/6
  Body Weight(g) Final: 23.79 ± 0.52 g
  Body Weight(g) Initial: 22.50 ± 1.05 g⁻¹
  Inhibition (%): 45.56%
  Tumor Weight (g, mean ± SD): 0.62 ± 0.31 g
[2]; Time (min) 5
  Brain contents of (+)-13a-(S)-deoxytylophorinine (ng/ml), Mean ± SD: 150.2 ± 84.8 ng/mL
  Brain contents of (+)-13a-(S)-deoxytylophorinine (ng/ml), individual animals 1-3: 245.2 ng/mL and 82.5 ng/mL and 122.7 ng/mL
[2]; Time (min) 15
  Brain contents of (+)-13a-(S)-deoxytylophorinine (ng/ml), Mean ± SD: 150.3 ± 49.8 ng/mL
  Brain contents of (+)-13a-(S)-deoxytylophorinine (ng/ml), individual animals 1-3: 159.3 ng/mL and 96.6 ng/mL and 194.9 ng/mL
[2]; Time (min) 120
  Brain contents of (+)-13a-(S)-deoxytylophorinine (ng/ml), Mean ± SD: 108.8 ± 74.7 ng/mL
  Brain contents of (+)-13a-(S)-deoxytylophorinine (ng/ml), individual animals 1-3: 27.2 ng/mL and 173.7 ng/mL and 125.4 ng/mL
[2]; oral, 3 time points
  Drug contents in brain compared with prototype: higher than their prototype
[3]; 6 mg/kg oral, mice
  Peak concentration in blood: 35.4 ± 3.5 ng/mL
  Time of peak concentration in blood: 5 min
  t½z: 103 min
[3]; [12]
  Blood concentration of (+)-13a-(S)-deoxytylophorinine (ng/ml), Mean ± SD: 35.4 ± 3.5 ng/mL
  Blood concentration of (+)-13a-(S)-deoxytylophorinine (ng/ml), individual animals 1-3: 33.0 ng/mL and 37.9 ng/mL
[3]; [13]
  Blood concentration of (+)-13a-(S)-deoxytylophorinine (ng/ml), Mean ± SD: 27.4 ± 6.2 ng/mL
  Blood concentration of (+)-13a-(S)-deoxytylophorinine (ng/ml), individual animals 1-3: 24.2 ng/mL and 23.5 ng/mL and 34.6 ng/mL
[3]; [14]
  Blood concentration of (+)-13a-(S)-deoxytylophorinine (ng/ml), Mean ± SD: 12.2 ± 4.0 ng/mL
  Blood concentration of (+)-13a-(S)-deoxytylophorinine (ng/ml), individual animals 1-3: 15.7 ng/mL and 13.0 ng/mL and 7.9 ng/mL
[3]; [15]
  Blood concentration of (+)-13a-(S)-deoxytylophorinine (ng/ml), Mean ± SD: 9.2 ± 3.2 ng/mL
  Blood concentration of (+)-13a-(S)-deoxytylophorinine (ng/ml), individual animals 1-3: 12.5 ng/mL and 6.2 ng/mL and 8.7 ng/mL
[3]; [16]
  Blood concentration of (+)-13a-(S)-deoxytylophorinine (ng/ml), Mean ± SD: 11.2 ± 8.0 ng/mL
  Blood concentration of (+)-13a-(S)-deoxytylophorinine (ng/ml), individual animals 1-3: 2.0 ng/mL and 15.9 ng/mL and 15.7 ng/mL
[3]; [17]
  Blood concentration of (+)-13a-(S)-deoxytylophorinine (ng/ml), Mean ± SD: 8.6 ± 6.6 ng/mL
  Blood concentration of (+)-13a-(S)-deoxytylophorinine (ng/ml), individual animals 1-3: 3.6 ng/mL and 16.1 ng/mL and 6.3 ng/mL
[3]; [18]
  Blood concentration of (+)-13a-(S)-deoxytylophorinine (ng/ml), Mean ± SD: 2.8 ± 0.9 ng/mL
  Blood concentration of (+)-13a-(S)-deoxytylophorinine (ng/ml), individual animals 1-3: 2.6 ng/mL and 2.0 ng/mL and 3.8 ng/mL
[3]; [19]
  Blood concentration of (+)-13a-(S)-deoxytylophorinine (ng/ml), Mean ± SD: 1.2 ± 1.0 ng/mL
  Blood concentration of (+)-13a-(S)-deoxytylophorinine (ng/ml), individual animals 1-3: 2.3 ng/mL and 1.0 ng/mL and 0.4 ng/mL
[3]
  AUC(0-inf): 49.9 ng·h/mL
  AUC(0-t): 46.9 ng·h/mL
  Cmax: 35.5 ng/mL
  MRT inf: 131 min
  MRT last: 107 min
  Tmax: 4.8 min
[4]
  Solubility in water (words): soluble in water
  solubility: 44 mg/mL

## COc1ccc2c3c(c4cc(OC)c(OC)cc4c2c1)CN1CCC[C@H]1C3 [(+)-13a-(S)-deoxytylophorinine, reference compound]
[1]; [10]
  Animal No. (Initial/Final): 6/4
  Body Weight(g) Final: 15.63 ± 2.16 g
  Body Weight(g) Initial: 23.50 ± 2.51 g⁻¹
  Inhibition (%): 74.02** %
  Tumor Weight (g, mean ± SD): 0.30 ± 0.12 g
[1]; [11]
  Animal No. (Initial/Final): 6/6
  Body Weight(g) Final: 23.31 ± 2.14 g
  Body Weight(g) Initial: 23.00 ± 1.55 g⁻¹
  Inhibition (%): 42.79* %
  Tumor Weight (g, mean ± SD): 0.66 ± 0.21 g
[3]; 6 mg/kg oral, mice
  t½z: 26.4 min
[3]
  AUC(0-inf): 33.7 ng·h/mL
  AUC(0-t): 33.3 ng·h/mL
  Cmax: 41.5 ng/mL
  MRT inf: 48 min
  MRT last: 46.2 min
  Tmax: 15 min
[5]
  Anti-tumor proliferative activity, mice Lewis lung cancer: notable anti-tumor proliferative activity
[4]
  Solubility in water: Insoluble
[4]; statement in text, listed as 13a-(S)-Deoxytylophorinine
  Solubility in water (words): insoluble in water
[4]; statement in text, listed as (+)-13a-(S)-Deoxytylophorinine
  Solubility in water (words): can not be dissolved in water
[6]
  Anti-tumor proliferative activity, mice H22 liver cancer: notable anti-tumor proliferative activity
[7]
  Toxicity in the liver and kidney: not toxic in the liver and kidney

## CC(O)C(=O)O.COc1ccc2c3c(c4cc(OC)c(OC)cc4c2c1)CN1CCC[C@H]1C3 [Lactate, (+)-13a-(S)-deoxytylophorinine Lactate]
[8]
  IC50: 40 nM
[4]
  Solubility in water (words): soluble in water
  solubility: 120 mg/mL
[9]
  IC50: 79 nM
